Read-outs that look alike come from different tables or passages of the source.
Key:
Format in all cases: biochemical
[1] = target: T1, bZiPro (unlinked binary Zika virus NS2B-NS3 protease) (Zika virus, UniProt A0A024B7W1); assay: Enzyme kinetics with bZiPro, fluorogenic substrate Phac-Leu-Lys-Lys-Arg-AMC
T1 construct: The viral protease consists of the N‐terminal third of the nonstructural protein NS3; the NS2B construct ends at Glu96; His6 (cleaved yes); made in house
Protocol: (§1) Enzyme kinetics. Measurements with bZiPro15 and the covalent WNV NS2B‐NS3 construct^10 were performed at room temperature in black 96 well plates using a Fluoroskan Ascent® plate reader (Thermo Fisher Scientific, Vantaa, Finland) with λ ex at 355 nm and λ em at 460 nm. Each well contained 125 μL inhibitor dissolved in buffer (for bZiPro: 20 mM Tris×HCl pH 8.5, 2 mM DTT, 10 w/v glycerol and 0.01 w/v Triton X‐100;18 for WNV protease: 100 mM Tris×HCl pH 8.5, containing 32 w/v glycerol and 0.01 w/v Triton X‐10012) and 50 μL substrate Phac‐Leu‐Lys‐Lys‐Arg‐AMC12 (40 μM for bZiPro (10 μM in assay, K M=1.4 μM) and 400 μM for the WNV protease (100 μM in assay, K M=53 μM)). The measurements were started by addition of 25 μL enzyme solution (16 nM for bZiPro (2.0 nM in assay), and 64 nM for the WNV protease (8.0 nM in assay)). Data points were collected each 15 s over a period of 10 min using eight different inhibitor concentrations. […] The K i values and their standard deviation were obtained from at least three independent measurements.(1) vi=Vmax×[S]/KM1+[I]/Ki+[S]
The constants K M and V max were obtained from independent measurements with six different substrate concentrations in absence of inhibitor. For inhibitor 10 with bZiPro, additional measurements at three substrate concentrations (10, 5, and 2.5 μM in assay) were performed to obtain the Dixon plot shown in Figure 4.

[2] = target: T2, bD4Pro (unlinked binary dengue-4 virus NS2B-NS3 protease) (Dengue virus type 4, UniProt Q2YHF2); assay: Enzyme kinetics with bD4Pro, substrate Benzoyl-Nle-Lys-Arg-Arg-AMC
T2 construct: The viral protease consists of the N‐terminal third of the nonstructural protein NS3; NS3 has to form a complex with its cofactor NS2B to achieve proteolytic activity; His6 (cleaved yes); made in house
T2 sequence (Q2YHF2 1475-1652 limits assumed): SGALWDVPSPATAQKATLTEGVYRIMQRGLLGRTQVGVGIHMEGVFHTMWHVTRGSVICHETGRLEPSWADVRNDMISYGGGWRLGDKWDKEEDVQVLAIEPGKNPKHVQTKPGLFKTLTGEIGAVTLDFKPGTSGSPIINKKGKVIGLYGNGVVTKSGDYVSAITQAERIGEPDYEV
T2 sequence (Q2YHF2 1397-1436 limits assumed): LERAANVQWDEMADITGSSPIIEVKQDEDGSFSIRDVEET
Protocol: Measurements with the dengue 4 virus protease construct (bD4Pro; expressed and purified by a similar methodology as described for bZiPro15 with slight modification of using Tobacco Etch Virus (TEV) protease instead of thrombin for His6‐tag cleavage) were performed in a Cytation 3 Mulitmode plate reader with λ ex at 380 nm and λ em at 460 nm. Assays were carried out as triplicate at 37 °C. Before measurement, the protease (final assay concentration 3 nM) was preincubated with varying concentrations of inhibitors in assay buffer (20 mM Tris pH 8.5, 10 % glycerol, 0.01 % Triton X‐100) for 1 h at room temperature in Corning black clear bottom 96‐well plates. The reaction was started by addition of the substrate Benzoyl‐Nle‐Lys‐Arg‐Arg‐AMC (final assay concentration 50 μM, K M=48.4 μM). Fluorescent readings were recorded at 1‐minute intervals over 10 minutes. The steady‐state rates v i in presence of inhibitor were calculated from the slopes of the progress curves using Graph Pad Prism. The v i values were fitted to Equation (2) as function of the inhibitor concentration [I] providing the IC50 values, where v 0 is the rate in absence of inhibitor and s a slope factor. The obtained IC50 values were finally converted into K i values by the Cheng‐Prusoff Equation (2).(2) vi=v0/1+I/IC50^s (3) Ki=IC50/1+S/KM

[3] = target: T3, WNV NS2B-NS3 protease (WNV-Pro) (West Nile virus, UniProt P06935); assay: Enzyme kinetics with the covalent WNV NS2B-NS3 construct, substrate Phac-Leu-Lys-Lys-Arg-AMC
T3 construct: NS3 has to form a complex with its cofactor NS2B to achieve proteolytic activity; The viral protease consists of the N‐terminal third of the nonstructural protein NS3
T3 sequence (P06935 1424-1463): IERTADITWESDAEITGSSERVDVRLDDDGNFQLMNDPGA
T3 sequence (P06935 1502-1679): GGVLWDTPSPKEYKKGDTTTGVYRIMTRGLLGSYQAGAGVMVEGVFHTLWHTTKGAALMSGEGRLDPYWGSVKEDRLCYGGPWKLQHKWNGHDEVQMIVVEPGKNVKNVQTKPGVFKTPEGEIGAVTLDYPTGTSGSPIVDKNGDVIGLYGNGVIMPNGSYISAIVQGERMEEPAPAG
Protocol: as §1

[4] = K i against bZiPro / ZIKV protease, value given in running text
[5] = K i bZiPro, mean±SD of at least three independent measurements, substrate 10 μM in assay, room temperature, pH 8.5
[6] = mean±SD of at least three independent measurements, substrate 10 μM in assay, room temperature, pH 8.5, read-out: K i bZiPro
[7] = mean±SD of at least three independent measurements, 37 °C, IC50 converted into K i by Cheng-Prusoff, read-out: K i bD4Pro
[8] = mean±SD of at least three independent measurements, substrate 100 μM in assay, room temperature, pH 8.5, read-out: K i WNV-Pro

T1 sequence (A0A024B7W1 1503-1680 limits assumed): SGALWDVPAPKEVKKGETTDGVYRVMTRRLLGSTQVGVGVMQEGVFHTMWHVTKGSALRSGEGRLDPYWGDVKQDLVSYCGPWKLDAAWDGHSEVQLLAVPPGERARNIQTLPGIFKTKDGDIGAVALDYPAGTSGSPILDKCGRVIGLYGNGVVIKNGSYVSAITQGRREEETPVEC
T1 sequence (A0A024B7W1 1425-1464 limits assumed): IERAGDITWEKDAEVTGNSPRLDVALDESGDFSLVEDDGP

Q: Which Ki [1, 4] does the source give for `N=C(N)N[C@H]1CC[C@H](CNC(=O)[C@H](CCCCN)NC(=O)[C@H](CCCCN)NC(=O)Cc2ccc(Cl)c(Cl)c2)CC1` [Inhibitor 1, 3,4‐dichloro‐Phac‐Lys‐Lys‐GCMA, reference compound] here?
A: The Ki was 0.014 µM.

Q: How did the Ki [1, 5] turn out when `N=C(N)N[C@H]1CCCCNC(=O)[C@H](CCCCN)NC(=O)[C@H](CCCCN)NC(=O)Cc2ccc(cc2)CNC(=O)CCCNC1=O` [Inhibitor 2] was run?
A: The Ki was 0.0918 ± 0.006 µM.

Q: And the Ki [2]?
A: The Ki was 11 ± 1 µM.

Q: What about the Ki [3] of the same compound?
A: Its Ki is 6.3 ± 0.49 µM.

Q: How did the Ki [1, 5] turn out when `N=C(N)N[C@H]1CCCNC(=O)[C@H](CCCCN)NC(=O)[C@H](CCCCN)NC(=O)Cc2ccc(cc2)CNC(=O)CCCNC1=O` [Inhibitor 3] was run?
A: Its Ki is 0.846 ± 0.111 µM.

Q: What about the Ki [2] of the same compound?
A: The Ki was 117 ± 5 µM.

Q: What about the Ki [3] of the same compound?
A: Its Ki is 27.8 ± 4.4 µM.

Q: What does the source list for `N=C(N)N[C@@H]1CCCCNC(=O)[C@H](CCCCN)NC(=O)[C@H](CCCCN)NC(=O)Cc2ccc(cc2)CNC(=O)CCCNC1=O` [Inhibitor 4]?
A: Ki [1, 5]: 0.0701 ± 0.0092 µM; Ki [2]: 4.73 ± 0.5 µM; Ki [3]: 4.97 ± 0.5 µM

Q: How did the Ki [1, 5] turn out when `N=C(N)N[C@@H]1CCCNC(=O)[C@H](CCCCN)NC(=O)[C@H](CCCCN)NC(=O)Cc2ccc(cc2)CNC(=O)CCCNC1=O` [Inhibitor 5] was run?
A: Its Ki is 3.61 ± 1.33 µM.

Q: And the Ki [2]?
A: Its Ki is 60.5 ± 5.7 µM.

Q: What about the Ki [3] of the same compound?
A: The Ki was 22 ± 4 µM.

Q: Which results are given for `NCCCC[C@@H]1NC(=O)Cc2ccc(cc2)CNC(=O)CCCNC(=O)[C@H](N)CCCCNC(=O)[C@H](CCCCN)NC1=O` [Inhibitor 6]?
A: Ki [1, 6]: 24.7 ± 7.2 µM; Ki [2, 7]: 94.5 ± 11.6 µM; Ki [3, 8]: 68.1 ± 5 µM

Q: How did the Ki [1, 6] turn out when `NCCCC[C@@H]1NC(=O)Cc2ccc(cc2)CNC(=O)CCCNC(=O)[C@H](N)CCCNC(=O)[C@H](CCCCN)NC1=O` [Inhibitor 7] was run?
A: The Ki was 13.2 ± 1.7 µM.

Q: And the Ki [2, 7]?
A: Its Ki is 30.6 ± 3.9 µM.

Q: What about the Ki [3, 8] of the same compound?
A: The Ki was 31.7 ± 3.6 µM.

Q: Which Ki [1, 5] does the source give for `N=C(N)N[C@@H]1CCCCNC(=O)[C@H](CCCCN)NC(=O)[C@H](CCCCN)NC(=O)Cc2cccc(c2)CNC(=O)CCCNC1=O` [Inhibitor 8] here?
A: Its Ki is 0.00433 ± 0.00035 µM.

Q: And the Ki [2]?
A: Its Ki is 0.286 ± 0.009 µM.

Q: And the Ki [3]?
A: The Ki was 0.702 ± 0.083 µM.

Q: `N=C(N)N[C@@H]1CCCCNC(=O)[C@H](CCCCN)NC(=O)[C@H](CCCCN)NC(=O)Cc2cccc(c2)CNC(=O)CCNC1=O` [Inhibitor 9] was tested. Which Ki [1, 5] did it give?
A: The Ki was 0.00388 ± 0.00081 µM.

Q: What about the Ki [2] of the same compound?
A: The Ki was 0.182 ± 0.005 µM.

Q: And the Ki [3]?
A: The Ki was 0.374 ± 0.044 µM.

Q: `N=C(N)N[C@@H]1CCCCNC(=O)[C@H](CCCCN)NC(=O)[C@H](CCCCN)NC(=O)Cc2cccc(c2)CNC1=O` [Inhibitor 12] was tested. Which Ki [1, 5] did it give?
A: The Ki was 0.0373 ± 0.0047 µM.

Q: What about the Ki [2] of the same compound?
A: The Ki was 1.28 ± 0.05 µM.

Q: And the Ki [3]?
A: The Ki was 15.3 ± 0.8 µM.

Q: Which Ki [1, 4] does the source give for `N=C(N)N[C@@H]1CCCCNC(=O)[C@H](CCCCN)NC(=O)[C@H](CCCCN)NC(=O)Cc2cccc(c2)NC(=O)CCNC1=O` [Inhibitor 13] here?
A: The Ki was 0.08 µM.

Q: And the Ki [1, 5]?
A: Its Ki is 0.0802 ± 0.0097 µM.

Q: And the Ki [2]?
A: Its Ki is 7.96 ± 0.55 µM.

Q: And the Ki [3]?
A: The Ki was 4.28 ± 0.31 µM.

Q: Which results are given for `N=C(N)N[C@@H]1CCCCNC(=O)[C@H](CCCCN)NC(=O)[C@H](CCCCN)NC(=O)Cc2cccc(c2)NC(=O)CCCNC1=O` [Inhibitor 14]?
A: Ki [1, 5]: 0.106 ± 0.029 µM; Ki [2]: 5.8 ± 0.36 µM; Ki [3]: 16.5 ± 4.6 µM

Q: For `C[C@@H]1NC(=O)[C@H](NC(=N)N)CCCCNC(=O)[C@H](CCCCN)NC(=O)[C@H](CCCCN)NC(=O)Cc2cccc(c2)CNC1=O` [Inhibitor 15], which Ki [1, 5] is on record?
A: Its Ki is 0.0182 ± 0.0051 µM.

Q: And the Ki [2]?
A: Its Ki is 3.6 ± 0.38 µM.

Q: What about the Ki [3] of the same compound?
A: The Ki was 1.39 ± 0.32 µM.

Q: With `C[C@H]1NC(=O)[C@H](NC(=N)N)CCCCNC(=O)[C@H](CCCCN)NC(=O)[C@H](CCCCN)NC(=O)Cc2cccc(c2)CNC1=O` [Inhibitor 16] as the compound, how does the Ki [1, 5] read?
A: Its Ki is 0.00352 ± 0.00109 µM.

Q: What about the Ki [2] of the same compound?
A: Its Ki is 0.125 ± 0.004 µM.

Q: And the Ki [3]?
A: Its Ki is 0.237 ± 0.021 µM.
